Experimental data reported in article PMC4482421 (ACS Nano, 2015).
Square brackets hold non-standard residues; d marks the D form. Peptide text beside a SMILES is read from it. pS = N[C@@H](COP(=O)(O)O)C(=O)O

Columns and labels:
[1] = tested on: human coronary artery vascular smooth muscle cells (HCAVSMCs); test: Cytotoxicity assay; assay type: cell-based; details: 10–500 μM peptide, 2 h treatment, then 24 h in fresh medium
[2] = tested on: human saphenous vein (HSV) rings; test: Inhibition of phenylephrine-induced HSV contraction; details: HSV rings ex vivo; 2 h treatment; 1 μM phenylephrine; n ≥ 3 donors

SMILES: CC(C)C[C@H](NC(=O)CNC(=O)[C@@H]1CCCN1C(=O)[C@H](CC(C)C)NC(=O)[C@@H]1CCCN1C(=O)[C@H](C)NC(=O)[C@H](COP(=O)(O)O)NC(=O)[C@H](C)NC(=O)[C@H](CCCNC(=N)N)NC(=O)[C@H](CCCNC(=N)N)NC(=O)[C@H](CC(C)C)NC(=O)[C@H](Cc1c[nH]c2ccccc12)NC(=O)[C@H](C)NC(=O)[C@H](CCCNC(=N)N)NC(=O)[C@H](C)NC(=O)[C@H](CCC(N)=O)NC(=O)[C@H](CCCNC(=N)N)NC(=O)[C@H](C)NC(=O)[C@H](C)NC(=O)[C@H](C)NC(=O)[C@H](CCCNC(=N)N)NC(=O)[C@H](C)NC(=O)[C@@H](N)Cc1ccc(O)cc1)C(=O)N[C@@H](CCCCN)C(=O)O [p-HSP20] (H-YARAAARQARAWLRRA[pS]APLPGLK-OH; N-terminus and C-terminus assumed)
- cytotoxicity / biocompatibility [1]: biocompatible with the exception of mild cytotoxicity detected at 500 μM
- inhibition of PE-induced HSV contraction [2]: significantly inhibited the second PE-induced HSV contraction
